Results as given in ChEMBL document CHEMBL1201862, “PubChem BioAssay data set” (2004).
Active and inactive are the calls of the source.

Columns and labels:
[1] = molecular target: T1, Apoptotic protease-activating factor 1 (Homo sapiens, UniProt O14727); test: SAR analysis of small molecule Activators of Apaf-1 in a Fluorescent assay.; format: functional; settings: read-out: EC50_Mean;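 also: caspase-3 cleavage of fluorogenic Rh110 DEVD substrate downstream of apoptosome activation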
T1 sequence (O14727 whole entry): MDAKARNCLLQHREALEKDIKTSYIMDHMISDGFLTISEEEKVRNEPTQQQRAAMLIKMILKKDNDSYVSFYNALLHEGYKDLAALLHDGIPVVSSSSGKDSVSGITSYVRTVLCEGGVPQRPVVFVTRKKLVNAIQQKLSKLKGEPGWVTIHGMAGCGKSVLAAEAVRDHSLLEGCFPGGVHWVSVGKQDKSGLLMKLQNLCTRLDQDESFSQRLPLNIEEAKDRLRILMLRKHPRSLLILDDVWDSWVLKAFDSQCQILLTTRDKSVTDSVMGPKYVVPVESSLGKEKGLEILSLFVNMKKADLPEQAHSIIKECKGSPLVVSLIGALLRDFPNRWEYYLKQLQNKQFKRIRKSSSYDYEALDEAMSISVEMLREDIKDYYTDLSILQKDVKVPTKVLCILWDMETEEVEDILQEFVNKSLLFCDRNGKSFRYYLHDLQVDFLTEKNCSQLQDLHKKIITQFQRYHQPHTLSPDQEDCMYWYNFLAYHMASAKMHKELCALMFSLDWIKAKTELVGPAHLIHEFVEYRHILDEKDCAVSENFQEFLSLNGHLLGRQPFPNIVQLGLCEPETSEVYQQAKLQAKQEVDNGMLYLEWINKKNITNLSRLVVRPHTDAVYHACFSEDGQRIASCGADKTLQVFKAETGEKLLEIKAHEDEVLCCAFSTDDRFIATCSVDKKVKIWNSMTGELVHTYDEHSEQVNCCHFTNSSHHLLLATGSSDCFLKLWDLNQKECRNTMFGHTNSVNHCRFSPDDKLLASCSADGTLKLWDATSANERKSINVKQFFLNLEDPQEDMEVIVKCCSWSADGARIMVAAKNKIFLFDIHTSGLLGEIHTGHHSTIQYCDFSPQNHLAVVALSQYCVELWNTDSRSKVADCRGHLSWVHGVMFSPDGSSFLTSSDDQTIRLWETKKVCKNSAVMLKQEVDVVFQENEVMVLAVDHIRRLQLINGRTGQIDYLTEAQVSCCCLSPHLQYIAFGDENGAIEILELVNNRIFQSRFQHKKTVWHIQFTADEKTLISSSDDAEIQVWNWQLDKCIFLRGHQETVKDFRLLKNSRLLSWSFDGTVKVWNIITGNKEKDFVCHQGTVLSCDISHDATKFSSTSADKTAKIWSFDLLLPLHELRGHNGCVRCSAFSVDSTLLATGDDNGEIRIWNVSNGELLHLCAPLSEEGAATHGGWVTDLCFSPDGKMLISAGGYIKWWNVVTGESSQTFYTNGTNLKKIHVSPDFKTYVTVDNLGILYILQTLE

Protein Wnt-3a = Protein Wnt-3a (Mus musculus, UniProt P27467); test: antagonism of Wnt3a pathway luciferase reporter – Wnt-LIGHT cells, luminescence, selectivity assay for Gli-SUFU antagonist project, dose response (AID 651570); format: functional; settings: read-out: IC50_Mean;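 also: Wnt-LIGHT reporter cells stimulated with conditioned medium from Wnt3a-producing cells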
INS1 = test: INS-1E survival protection against cytokine death – cell-based, luminescence, retest, dose response (AID 449756); format: functional; settings: Rattus norvegicus;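 also: cell death triggered by IL-1 beta plus TNF-alpha plus IFN-gamma mixture; protective hits raise ATP signal compared with cytokine alone wells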
[2] = HEK-293T viability loss after treatment – luminescence, T-cell screen hits, cytotoxicity control for TCR NF-kB inhibitor project, dose response (AID 489026); format: functional, cell-based;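 also: cells exposed to compound about 14 hours before the viability readout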
[3] = Counterscreen for AddAB inhibitors: absorbance-based bacterial cell-based high throughput dose response assay for inhibitors of bacterial viability. [Related pubchem assays (depositor defined):AID435030, AID449728, AID449731, AID488942, AID488955, AID488956]; format: functional
Exodeoxyribonuclease V = Exodeoxyribonuclease V (Escherichia coli (strain K12), UniProt P04993+P07648+P08394); test: RecBCD inhibition via phage-restricted bacterial growth – absorbance, V66 E. coli, mutant T4 phage, counter-screen for AddAB inhibitor project, dose response (AID 492957); format: functional, cell-based, Escherichia coli str. K-12 substr. MG1655
[4] = molecular target: Mitochondrial peptide methionine sulfoxide reductase (Bos taurus, UniProt P54149); format: functional;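 also: absorbance read-out, biochemical high-throughput dose-response screen for MsrA inhibitors, confirmatory; recombinant bovine MsrA coupled to E. coli TrxB with NADPH and selenocystamine; potency is for inhibitors of MsrA activity on DMSO substrate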
Protein RecA = molecular target: T2, Protein RecA (Mycobacterium tuberculosis, UniProt P9WHJ3); test: Fluorescence Cell-Free Homogeneous Dose Retest to Identify Inhibitors of RecA-Intein Splicing Activity. [Related pubchem assays (depositor defined):AID2097, AID2223, AID489010, AID492950]; format: functional
T2 sequence (P9WHJ3 whole entry): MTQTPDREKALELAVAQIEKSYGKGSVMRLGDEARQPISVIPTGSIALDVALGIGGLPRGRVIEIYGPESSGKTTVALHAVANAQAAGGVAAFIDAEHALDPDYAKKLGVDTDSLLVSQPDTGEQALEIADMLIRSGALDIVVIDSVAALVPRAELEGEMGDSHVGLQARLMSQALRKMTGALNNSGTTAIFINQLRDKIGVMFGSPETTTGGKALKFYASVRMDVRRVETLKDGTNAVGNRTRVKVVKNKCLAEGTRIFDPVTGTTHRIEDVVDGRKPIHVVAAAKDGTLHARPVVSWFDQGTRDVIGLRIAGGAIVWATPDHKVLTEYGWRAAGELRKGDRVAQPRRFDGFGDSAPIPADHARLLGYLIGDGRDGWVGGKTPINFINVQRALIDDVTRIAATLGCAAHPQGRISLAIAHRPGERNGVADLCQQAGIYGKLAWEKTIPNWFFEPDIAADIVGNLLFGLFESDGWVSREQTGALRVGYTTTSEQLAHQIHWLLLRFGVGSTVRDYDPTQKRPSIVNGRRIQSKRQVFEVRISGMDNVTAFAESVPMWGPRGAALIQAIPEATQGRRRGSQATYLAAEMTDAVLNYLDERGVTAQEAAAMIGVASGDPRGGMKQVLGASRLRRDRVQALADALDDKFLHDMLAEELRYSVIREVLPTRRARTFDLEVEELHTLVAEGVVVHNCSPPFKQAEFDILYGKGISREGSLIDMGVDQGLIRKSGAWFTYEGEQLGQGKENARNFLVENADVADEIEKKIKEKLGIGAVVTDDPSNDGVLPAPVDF

[5] = molecular target: T3, Replicative DNA helicase DnaB (Mycobacterium tuberculosis, UniProt P9WMR3); test: DnaB intein splicing inhibitors, dose response, biochemical, cell-free fluorescence (AID 449749); format: functional
T3 sequence (P9WMR3 whole entry): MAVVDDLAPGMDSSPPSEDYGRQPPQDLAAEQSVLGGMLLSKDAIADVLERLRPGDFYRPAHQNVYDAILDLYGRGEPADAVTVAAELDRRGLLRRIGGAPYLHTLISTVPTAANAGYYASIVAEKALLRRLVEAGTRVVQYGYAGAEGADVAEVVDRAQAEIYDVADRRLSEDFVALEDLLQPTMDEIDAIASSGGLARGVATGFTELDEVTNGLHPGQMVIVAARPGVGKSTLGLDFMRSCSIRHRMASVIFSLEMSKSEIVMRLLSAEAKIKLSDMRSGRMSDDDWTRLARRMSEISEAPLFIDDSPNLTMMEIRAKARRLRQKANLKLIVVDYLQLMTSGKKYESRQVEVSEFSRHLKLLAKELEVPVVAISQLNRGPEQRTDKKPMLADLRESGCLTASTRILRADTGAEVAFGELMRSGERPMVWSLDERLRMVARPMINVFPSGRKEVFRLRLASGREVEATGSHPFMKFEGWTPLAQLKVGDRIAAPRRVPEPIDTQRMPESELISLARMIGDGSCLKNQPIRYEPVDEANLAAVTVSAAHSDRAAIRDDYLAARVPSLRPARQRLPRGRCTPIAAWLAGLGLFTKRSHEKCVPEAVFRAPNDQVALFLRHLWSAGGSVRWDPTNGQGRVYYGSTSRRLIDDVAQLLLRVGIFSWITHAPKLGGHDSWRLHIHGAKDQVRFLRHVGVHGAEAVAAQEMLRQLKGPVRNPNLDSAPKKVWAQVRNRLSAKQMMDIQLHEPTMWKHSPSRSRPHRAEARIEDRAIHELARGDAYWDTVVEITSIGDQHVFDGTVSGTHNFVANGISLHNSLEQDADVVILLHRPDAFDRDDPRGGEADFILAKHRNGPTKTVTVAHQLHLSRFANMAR

[6] = Luminescence Cell-Based Dose Response HTS to Identify Inhibitors of 5'UTR Stem-Loop Driven Prion Protein mRNA Translation in H4 Neuroglioblastoma Cells. [Related pubchem assays: 1827 (Project Summary), 1813 (Primary HTS)]; format: functional
[7] = luciferase reporter signal suppression in cells – H4 neuroglioma cells, luminescence, dose response (AID 1990); format: functional, cell-based
[8] = alpha-synuclein stem-loop luciferase translation blockers – H4 neuroglioma cells, luminescence, confirmation (AID 1988); format: functional, cell-based
[9] = loss of viability in HepG2 cells – cell-based, CellTiter-Glo, cherry-picked, cytotoxicity control for Shn3 inhibitor project, dose response (AID 624134); format: functional
[10] = non-specific 3'UTR reporter inhibition in Clone20-Shn3RL – cell-based, Renilla luciferase, cherry-picked, counter-screen for Shn3 inhibitor project, dose response (AID 624133); format: functional
[11] = molecular target: Photoreceptor-specific nuclear receptor (Homo sapiens, UniProt Q9Y5X4); format: functional, cell-based;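 also: CHO-S cells with Gal4-NCOR and VP16-NR2E3 two-hybrid luciferase reporter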
Vero = test: inhibition of WNV-induced cytopathic effect – cell-based, CPE readout (AID 1621); format: functional; settings: Chlorocebus sabaeus
[12] = reduction of Shn3 3'UTR-driven luciferase in osteoblasts – cell-based, Clone20 osteoblasts, firefly luciferase, cherry-picked, dose response (AID 624132); format: functional;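 also: firefly luciferase luminescence from reporter carrying the Shn3 3'UTR in osteoblasts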

Chain of Photoreceptor-specific nuclear receptor (Q9Y5X4 whole entry, the tested form may be a part): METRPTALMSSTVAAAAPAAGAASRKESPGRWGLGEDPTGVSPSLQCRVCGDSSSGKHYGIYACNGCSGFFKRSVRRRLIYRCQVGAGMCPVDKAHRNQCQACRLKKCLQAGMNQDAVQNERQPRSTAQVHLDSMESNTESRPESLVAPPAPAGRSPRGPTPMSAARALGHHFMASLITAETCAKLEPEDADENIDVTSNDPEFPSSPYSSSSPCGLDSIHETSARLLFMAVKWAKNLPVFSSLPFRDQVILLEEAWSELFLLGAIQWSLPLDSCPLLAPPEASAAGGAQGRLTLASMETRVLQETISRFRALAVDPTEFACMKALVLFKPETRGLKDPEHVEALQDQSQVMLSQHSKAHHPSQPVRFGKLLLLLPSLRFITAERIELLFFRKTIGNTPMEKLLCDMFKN
Chain of Exodeoxyribonuclease V (P04993 whole entry): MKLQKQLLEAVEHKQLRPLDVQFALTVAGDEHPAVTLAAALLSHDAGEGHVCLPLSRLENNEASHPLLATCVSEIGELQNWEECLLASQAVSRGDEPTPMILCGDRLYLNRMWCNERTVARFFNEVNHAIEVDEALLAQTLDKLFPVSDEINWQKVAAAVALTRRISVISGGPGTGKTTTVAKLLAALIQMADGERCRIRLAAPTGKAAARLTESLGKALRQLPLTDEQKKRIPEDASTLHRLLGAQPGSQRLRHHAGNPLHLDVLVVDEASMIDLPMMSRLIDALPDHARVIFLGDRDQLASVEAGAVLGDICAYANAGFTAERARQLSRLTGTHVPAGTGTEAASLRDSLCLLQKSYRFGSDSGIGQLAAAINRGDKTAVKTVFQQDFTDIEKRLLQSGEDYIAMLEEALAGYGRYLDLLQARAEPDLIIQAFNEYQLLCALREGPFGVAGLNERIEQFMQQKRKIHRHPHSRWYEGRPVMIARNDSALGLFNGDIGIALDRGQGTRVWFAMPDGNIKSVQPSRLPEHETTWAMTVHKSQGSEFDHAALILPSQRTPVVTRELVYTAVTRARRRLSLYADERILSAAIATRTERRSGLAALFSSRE
Chain of Exodeoxyribonuclease V (P07648 whole entry): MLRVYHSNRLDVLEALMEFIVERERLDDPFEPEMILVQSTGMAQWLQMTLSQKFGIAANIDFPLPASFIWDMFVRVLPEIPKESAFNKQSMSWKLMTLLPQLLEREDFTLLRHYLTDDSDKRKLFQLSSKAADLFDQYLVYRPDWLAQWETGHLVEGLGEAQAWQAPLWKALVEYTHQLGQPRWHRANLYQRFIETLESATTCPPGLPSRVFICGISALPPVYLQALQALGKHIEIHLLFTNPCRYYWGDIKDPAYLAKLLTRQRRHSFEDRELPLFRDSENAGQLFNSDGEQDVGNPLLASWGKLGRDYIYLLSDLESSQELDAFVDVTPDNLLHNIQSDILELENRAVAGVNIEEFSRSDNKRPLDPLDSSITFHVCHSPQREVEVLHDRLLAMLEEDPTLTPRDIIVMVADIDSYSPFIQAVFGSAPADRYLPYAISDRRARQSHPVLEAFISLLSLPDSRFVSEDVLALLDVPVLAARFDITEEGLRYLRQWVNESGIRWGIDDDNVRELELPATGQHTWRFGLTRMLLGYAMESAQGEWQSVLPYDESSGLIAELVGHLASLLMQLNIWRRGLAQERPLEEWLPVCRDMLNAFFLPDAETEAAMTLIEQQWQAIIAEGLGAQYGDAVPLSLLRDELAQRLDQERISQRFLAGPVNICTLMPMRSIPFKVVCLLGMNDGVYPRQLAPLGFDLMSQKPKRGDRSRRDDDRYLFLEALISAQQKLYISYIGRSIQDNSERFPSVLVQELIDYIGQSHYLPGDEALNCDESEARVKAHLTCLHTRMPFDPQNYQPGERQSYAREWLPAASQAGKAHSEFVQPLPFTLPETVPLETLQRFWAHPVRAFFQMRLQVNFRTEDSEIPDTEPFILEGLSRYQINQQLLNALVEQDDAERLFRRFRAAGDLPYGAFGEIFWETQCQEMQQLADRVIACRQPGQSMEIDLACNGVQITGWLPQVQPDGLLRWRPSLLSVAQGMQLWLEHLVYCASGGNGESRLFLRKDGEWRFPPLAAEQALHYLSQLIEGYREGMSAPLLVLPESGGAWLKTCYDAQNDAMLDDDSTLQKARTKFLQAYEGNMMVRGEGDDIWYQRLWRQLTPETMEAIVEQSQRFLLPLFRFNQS
Chain of Exodeoxyribonuclease V (P08394 whole entry): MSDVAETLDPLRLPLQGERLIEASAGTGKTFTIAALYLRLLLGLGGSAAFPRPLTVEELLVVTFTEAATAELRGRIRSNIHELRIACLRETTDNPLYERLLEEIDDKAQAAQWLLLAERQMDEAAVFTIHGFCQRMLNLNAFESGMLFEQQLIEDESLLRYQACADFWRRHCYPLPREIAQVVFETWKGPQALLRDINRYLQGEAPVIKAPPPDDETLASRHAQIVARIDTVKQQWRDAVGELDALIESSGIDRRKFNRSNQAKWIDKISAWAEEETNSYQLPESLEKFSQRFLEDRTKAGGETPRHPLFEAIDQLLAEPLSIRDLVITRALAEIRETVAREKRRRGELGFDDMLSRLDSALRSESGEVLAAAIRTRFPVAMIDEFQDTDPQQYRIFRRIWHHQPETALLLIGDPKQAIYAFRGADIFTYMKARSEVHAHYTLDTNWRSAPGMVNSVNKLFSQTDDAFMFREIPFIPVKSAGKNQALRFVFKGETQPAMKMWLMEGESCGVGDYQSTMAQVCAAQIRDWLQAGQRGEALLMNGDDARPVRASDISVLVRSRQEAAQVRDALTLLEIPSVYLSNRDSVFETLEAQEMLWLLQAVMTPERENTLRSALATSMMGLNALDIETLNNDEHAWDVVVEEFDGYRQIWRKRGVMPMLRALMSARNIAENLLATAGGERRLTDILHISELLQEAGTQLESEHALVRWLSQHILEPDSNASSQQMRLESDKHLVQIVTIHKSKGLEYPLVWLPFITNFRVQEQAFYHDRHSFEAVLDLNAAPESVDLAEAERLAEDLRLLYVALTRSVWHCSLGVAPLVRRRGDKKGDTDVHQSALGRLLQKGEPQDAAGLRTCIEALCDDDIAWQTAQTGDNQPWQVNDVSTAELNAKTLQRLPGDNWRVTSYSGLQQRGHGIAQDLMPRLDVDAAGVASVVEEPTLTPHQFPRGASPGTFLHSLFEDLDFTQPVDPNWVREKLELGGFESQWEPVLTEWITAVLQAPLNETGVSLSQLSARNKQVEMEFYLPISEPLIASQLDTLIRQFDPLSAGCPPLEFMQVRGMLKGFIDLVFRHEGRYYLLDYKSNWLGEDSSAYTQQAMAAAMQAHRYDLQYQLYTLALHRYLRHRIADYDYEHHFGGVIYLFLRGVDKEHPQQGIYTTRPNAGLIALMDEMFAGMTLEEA
Chain of Protein Wnt-3a (P27467 whole entry): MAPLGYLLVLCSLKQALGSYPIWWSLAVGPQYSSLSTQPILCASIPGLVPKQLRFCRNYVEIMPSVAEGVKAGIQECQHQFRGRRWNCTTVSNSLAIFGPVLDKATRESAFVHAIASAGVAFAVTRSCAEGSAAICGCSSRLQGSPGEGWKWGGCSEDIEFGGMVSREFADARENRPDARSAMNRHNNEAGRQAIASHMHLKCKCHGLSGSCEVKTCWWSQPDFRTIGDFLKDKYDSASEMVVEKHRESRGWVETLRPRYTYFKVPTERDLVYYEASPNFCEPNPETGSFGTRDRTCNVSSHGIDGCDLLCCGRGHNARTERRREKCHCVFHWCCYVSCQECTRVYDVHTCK
Chain of Mitochondrial peptide methionine sulfoxide reductase (P54149 whole entry): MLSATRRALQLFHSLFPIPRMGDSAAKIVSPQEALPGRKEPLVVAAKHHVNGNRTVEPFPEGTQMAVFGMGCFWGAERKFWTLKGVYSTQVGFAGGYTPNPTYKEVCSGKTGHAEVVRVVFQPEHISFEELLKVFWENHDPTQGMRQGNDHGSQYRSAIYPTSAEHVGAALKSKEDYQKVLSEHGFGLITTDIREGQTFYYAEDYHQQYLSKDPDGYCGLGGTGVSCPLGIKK

For `Cc1nn(Cc2ccccc2)c(C)c1CCC(=O)O`, which EC50 [1] is on record?
Its EC50 is > 100 µM (inactive).

What does the source list for `CCOC(=O)c1ccc(NC(=O)Cn2cnc3cc(C)c(C)cc32)cc1`?
IC50 (Protein Wnt-3a): 0.931 µM (active); AC50 (INS1): 4.42 µM (active); IC50 [2]: > 80 µM (inactive); IC50 [3]: > 119 µM (inactive); IC50 (Exodeoxyribonuclease V): > 119 µM (inactive)

Which results are given for `CS/C(=C/[N+](=O)[O-])Nc1cccc2c1C(C)CC2(C)C` (configuration not stated)?
IC50 [4]: 44.8 µM (inactive); EC50 (Protein RecA): 5.21 µM (active); AC50 [5]: 17.5 µM (active)

With `COc1cc2c(OC(C)=O)c3c(c(-c4ccc5c(c4)OCO5)c2cc1OC)C(=O)OC3` as the compound, how does the EC50 [6] read?
The EC50 was 14.4 µM (active).

And the EC50 [7]?
The EC50 was 8.65 µM (active).

And the EC50 [8]?
Its EC50 is 4.4 µM (active).

And the AC50 [9]?
Its AC50 is 1.38 µM (active).

What about the AC50 [10] of the same compound?
The AC50 was 24.5 µM (active).

And the IC50 [11]?
Its IC50 is 1.83 µM (active).

What about the IC50 (Vero) of the same compound?
Its IC50 is 21.1 µM (active).

What about the AC50 [12] of the same compound?
Its AC50 is 1.8 µM (active).
